Experimental data: patent US20150320692A1 (UNIWERSYTET LÓDZKI, priority 2012, published 2015)

Tested on: CLL cells (leukemic lymphocytes)
Assay: Assessment of mitochondrial membrane potential (CMXRos, flow cytometry)
Assay type: cell-based, human
Conditions: for mean percentage of cells with lower mitochondrial potential (ΔΨm^low/Gly-A^−): 1.6 μM
Excerpt: Mitochondrial membrane potential is an early indicator of apoptosis. CMXRos, i.e. Chloromethyl-X-rosamine (the reagent's name by Mito Tracker Red CMXRos, Molecular Probes, USA), and a monoclonal antibody to glycophorin A conjugated with FITC (the reagent's name of Anti-Glycophorin A FITC by Dako, Denmark) were used for its assessment. CMXRos is a lipophilic cationic dye that accumulates in the mitochondrial matrix of viable cells when there is an electronegative load on the inner surface of the mitochondrial membrane. This asymmetric location of protons along the inner mitochondrial membrane leads to a high mitochondrial membrane potential (ΔΨm) in living cells. A decreased mitochondrial potential ΔΨm is one of the first symptoms of apoptosis during the process of induction, which results in lowering of the mitochondrial uptake of CMXRos.
The stock CMXRos solution was prepared by dilution of the substance supplied by the manufacturer in 94 μl DMSO (dimethylsulphoxide), and stored at […]. Then working solution was prepared also using DMSO (1:10) and stored at 4° C. Mononuclear cells, i.e. leukemic lymphocytes, at 1×10^6 MNCs/ml concentration, were incubated with CMXRos (2.5 μl working solution in 500 μl RPMI 1640 medium) at 37° C. for 30 minutes. […] The samples were next measured using flow cytometry. The percentage of cells not bound to anti-glycophorin A-FITC (ΔΨm^low/Gly-A^− cells), with low mitochondrial potential, was calculated.
All fluorescence measurements were performed by a flow cytometer FACSCalibur (Becton Dickinson, USA) equipped with an argon laser 488 nm and computer program CellQuestPro (Becton Dickinson, USA). Each time 10 000 cells were evaluated. The fluorescence was measured using standard emission filters: green—FL1 (wavelength λ=530±20 nm) and red—FL3 (>600 nm).

Compound	apoptosis-inducing action (mitochondrial potential) compared with control (10 μg/ml, 24-hour cultures)	mean percentage of cells with lower mitochondrial potential (ΔΨm^low/Gly-A^−) (24 h) [%]	mean percentage of cells with lower mitochondrial potential (ΔΨm^low/Gly-A^−) (48 h) [%]
rituximab	apoptosis-inducing action in order of spontaneous apoptosis		
Nc1nc(F)nc2c1ncn2[C@@H]1O[C@H](CO)[C@@H](O)[C@@H]1O [FA, fludarabine]		52.05	74.49
